Laboratory results reported in PubChem BioAssay AID330 (DTP/NCI, 2004).
Where “and” joins values, the source holds several entries; their conditions need not be identical. Identical values can stand only once. Toxic doses and inconclusive results are not listed. Rule for the calls: active = survival T/C of 150% or more; inactive = T/C below 125% in these data.

Test system: P388 leukemia ip, CD2F1 mice, survival T/C
Assay: NCI In Vivo Anticancer Drug Screen. Data for tumor model P388 Leukemia (intraperitoneal) in CD2F1 (CDF1) mice
Settings: endpoint: median survival time, higher = longer survival
Procedure, shortened: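 Mice carrying the transplanted tumor received test compound or vehicle. Survival was recorded in each group, and the value is the treated-group measurement divided by that of the vehicle-treated control group.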

[1] = dose: 100.0 mg/kg/injection, schedule: Q01DX001 (ip), vehicle: Klucel (hydroxypropylcellulose) (HPC)
[2] = dose: 25.0 mg/kg/injection, schedule: Q01DX009 (ip), vehicle: saline with Tween-80
[3] = dose: 50.0 mg/kg/injection, schedule: Q01DX009 (ip), vehicle: saline with Tween-80
[4] = dose: 100.0 mg/kg/injection, schedule: Q01DX009 (ip), vehicle: saline with Tween-80
[5] = dose: 200.0 mg/kg/injection, schedule: Q01DX009 (ip), vehicle: saline with Tween-80
[6] = dose: 12.5 mg/kg/injection, schedule: Q01DX009 (ip), vehicle: Klucel (hydroxypropylcellulose) (HPC)
[7] = dose: 25.0 mg/kg/injection, schedule: Q01DX009 (ip), vehicle: Klucel (hydroxypropylcellulose) (HPC)
[8] = dose: 6.25 mg/kg/injection, schedule: Q01DX009 (ip), vehicle: saline with Tween-80
[9] = dose: 12.5 mg/kg/injection, schedule: Q01DX009 (ip), vehicle: saline with Tween-80
[10] = dose: 3.75 mg/kg/injection, schedule: Q01DX005 (ip), vehicle: Klucel (hydroxypropylcellulose) (HPC)
[11] = dose: 7.5 mg/kg/injection, schedule: Q01DX005 (ip), vehicle: Klucel (hydroxypropylcellulose) (HPC)

Measured: T/C

COc1cc2c[n+](C)c3c(c2cc1OC)Cc1c-3ccc(O)c1OC
inactive: [1] 116 % of control

NC(=O)c1csc(C2OC(CO)C(O)C2O)n1 (configuration not stated)
99 % of control and 245 % of control: dose: 800.0 mg/kg/injection, schedule: Q01DX009 (ip), vehicle: water
inactive: dose: 750.0 mg/kg/injection, schedule: Q01DX009 (ip), vehicle: water 117 % of control
active: dose: 75.0 mg/kg/injection, schedule: Q01DX005 (ip), vehicle: saline 158 % of control | dose: 100.0 mg/kg/injection, schedule: Q01DX005 (ip), vehicle: saline 155 % of control and 159 % of control and 161 % of control | dose: 100.0 mg/kg/injection, schedule: Q01DX005 (ip), vehicle: water 157 % of control | dose: 150.0 mg/kg/injection, schedule: Q01DX005 (ip), vehicle: saline 152 % of control and 158 % of control | dose: 200.0 mg/kg/injection, schedule: Q01DX005 (ip), vehicle: saline 173 % of control and 174 % of control and 178 % of control | dose: 200.0 mg/kg/injection, schedule: Q01DX005 (ip), vehicle: water 171 % of control | dose: 300.0 mg/kg/injection, schedule: Q01DX005 (ip), vehicle: saline 163 % of control and 177 % of control | dose: 300.0 mg/kg/injection, schedule: Q01DX005 (ip), vehicle: water 158 % of control | dose: 300.0 mg/kg/injection, schedule: Q01DX009 (ip), vehicle: water 193 % of control and 198 % of control | dose: 400.0 mg/kg/injection, schedule: Q01DX005 (ip), vehicle: saline 181 % of control and 187 % of control and 198 % of control | dose: 400.0 mg/kg/injection, schedule: Q01DX005 (ip), vehicle: water 164 % of control and 189 % of control | dose: 400.0 mg/kg/injection, schedule: Q01DX009 (ip), vehicle: water 201 % of control and 224 % of control | dose: 600.0 mg/kg/injection, schedule: Q01DX005 (ip), vehicle: saline 177 % of control | dose: 600.0 mg/kg/injection, schedule: Q01DX005 (ip), vehicle: water 169 % of control | dose: 600.0 mg/kg/injection, schedule: Q01DX009 (ip), vehicle: water 234 % of control and 237 % of control | dose: 800.0 mg/kg/injection, schedule: Q01DX005 (ip), vehicle: saline 217 % of control
245 % of control and 86 % of control: dose: 700.0 mg/kg/injection, schedule: Q01DX009 (ip), vehicle: water

COC(=O)/C1=C/N(C=O)CCCC2OC12C(=O)OC (configuration not stated)
inactive: [1] 100 % of control | dose: 200.0 mg/kg/injection, schedule: Q01DX001 (ip), vehicle: Klucel (hydroxypropylcellulose) (HPC) 100 % of control

Oc1c(Cl)c(Cl)c(O)c(Cl)c1Cl
inactive: dose: 6.25 mg/kg/injection, schedule: Q04DX003 (ip), vehicle: Klucel (hydroxypropylcellulose) (HPC) 98 % of control | dose: 12.5 mg/kg/injection, schedule: Q04DX003 (ip), vehicle: Klucel (hydroxypropylcellulose) (HPC) 99 % of control | dose: 25.0 mg/kg/injection, schedule: Q04DX003 (ip), vehicle: Klucel (hydroxypropylcellulose) (HPC) 98 % of control

CC1OC(OCc2ccc(-c3ccccc3)cc2)CC(N)C1O (configuration not stated)
inactive: dose: 1.56 mg/kg/injection, schedule: Q01DX009 (ip), vehicle: water 99 % of control | dose: 3.13 mg/kg/injection, schedule: Q01DX009 (ip), vehicle: water 104 % of control | dose: 6.25 mg/kg/injection, schedule: Q01DX009 (ip), vehicle: water 107 % of control | dose: 12.5 mg/kg/injection, schedule: Q01DX009 (ip), vehicle: water 108 % of control | dose: 25.0 mg/kg/injection, schedule: Q01DX009 (ip), vehicle: water 98 % of control

C=C1CC2(OC1=O)C(=O)N(C)c1ccc(I)cc12 (configuration not stated)
inactive: dose: 25.0 mg/kg/injection, schedule: Q01DX009 (ip), vehicle: saline 116 % of control | dose: 50.0 mg/kg/injection, schedule: Q01DX009 (ip), vehicle: saline 87 % of control

Clc1ccc(/C=N\N=C\c2ccc(Cl)c(Cl)c2)cc1Cl
inactive: [2] 95 % of control | [3] 100 % of control | [4] 110 % of control | [5] 90 % of control | dose: 400.0 mg/kg/injection, schedule: Q01DX009 (ip), vehicle: saline with Tween-80 90 % of control

C=C(C#N)COc1ccc(Cl)cc1C
inactive: [6] 101 % of control | [7] 98 % of control | dose: 50.0 mg/kg/injection, schedule: Q01DX009 (ip), vehicle: Klucel (hydroxypropylcellulose) (HPC) 104 % of control and 95 % of control

CCc1nc(N)nc(N)c1-c1ccc(N2CCN(C)CC2)cc1
inactive: dose: 50.0 mg/kg/injection, schedule: Q01DX005 (ip), vehicle: saline with Tween-80 103 % of control | dose: 100.0 mg/kg/injection, schedule: Q01DX005 (ip), vehicle: saline with Tween-80 100 % of control | dose: 200.0 mg/kg/injection, schedule: Q01DX005 (ip), vehicle: saline with Tween-80 99 % of control

Nc1c(Cl)cc(C(=O)NC2CC2)cc1Cl
inactive: [2] 94 % of control and 95 % of control | [3] 100 % of control and 88 % of control | [4] 102 % of control and 113 % of control | [5] 109 % of control and 89 % of control

C[N+](C)(C)Cc1ccccc1
inactive: dose: 3.13 mg/kg/injection, schedule: Q01DX009 (ip), vehicle: saline with Tween-80 100 % of control | dose: 3.13 mg/kg/injection, schedule: Q01DX009 (ip), vehicle: saline 99 % of control | dose: 6.25 mg/kg/injection, schedule: Q01DX009 (ip), vehicle: Klucel (hydroxypropylcellulose) (HPC) 95 % of control | [8] 100 % of control | dose: 6.25 mg/kg/injection, schedule: Q01DX009 (ip), vehicle: saline 94 % of control | [6] 93 % of control | [9] 100 % of control | dose: 12.5 mg/kg/injection, schedule: Q01DX009 (ip), vehicle: saline 96 % of control | [7] 99 % of control

CC(=O)c1c(C)n(-c2ccccc2)c2c1[nH]c1ccccc12
inactive: [10] 94 % of control | [11] 92 % of control | dose: 15.0 mg/kg/injection, schedule: Q01DX005 (ip), vehicle: Klucel (hydroxypropylcellulose) (HPC) 86 % of control and 93 % of control | dose: 60.0 mg/kg/injection, schedule: Q01DX005 (ip), vehicle: Klucel (hydroxypropylcellulose) (HPC) 93 % of control | dose: 240.0 mg/kg/injection, schedule: Q01DX005 (ip), vehicle: Klucel (hydroxypropylcellulose) (HPC) 92 % of control

CCN(CCO)CC(O)Cn1cnc2c(N)ncnc21 (configuration not stated) (tested in a mixture with another compound)
inactive: dose: 60.0 mg/kg/injection, schedule: Q01DX005 (ip), vehicle: saline 97 % of control | dose: 120.0 mg/kg/injection, schedule: Q01DX005 (ip), vehicle: saline 100 % of control | dose: 240.0 mg/kg/injection, schedule: Q01DX005 (ip), vehicle: saline 95 % of control

Cc1ccc(S(=O)(=O)OI(C#Cc2ccccc2)c2ccccc2)cc1
inactive: dose: 77.5 mg/kg/injection, schedule: Q04DX002 (ip), vehicle: Klucel (hydroxypropylcellulose) (HPC) 99 % of control | dose: 155.0 mg/kg/injection, schedule: Q04DX002 (ip), vehicle: Klucel (hydroxypropylcellulose) (HPC) 89 % of control | dose: 310.0 mg/kg/injection, schedule: Q04DX002 (ip), vehicle: Klucel (hydroxypropylcellulose) (HPC) 99 % of control

COc1ccccc1-c1cn(O)c(=N)c(C#N)n1
inactive: [8] 89 % of control | [9] 94 % of control | [2] 94 % of control

CCC(O)Cn1cnc2c(N)ncnc21 (configuration not stated)
inactive: dose: 50.0 mg/kg/injection, schedule: Q01DX005 (ip), vehicle: Klucel (hydroxypropylcellulose) (HPC) 99 % of control | dose: 100.0 mg/kg/injection, schedule: Q01DX005 (ip), vehicle: Klucel (hydroxypropylcellulose) (HPC) 99 % of control | dose: 200.0 mg/kg/injection, schedule: Q01DX005 (ip), vehicle: Klucel (hydroxypropylcellulose) (HPC) 100 % of control

COc1cccc2c1C(=O)c1c(O)c3c(c(O)c1C2=O)CC(O)(C(C)=O)CC3OC1CC(NC(=O)CN(C)C)C(O)C(C)O1 (configuration not stated)
inactive: dose: 0.25 mg/kg/injection, schedule: Q01DX009 (ip), vehicle: water 109 % of control | dose: 0.5 mg/kg/injection, schedule: Q01DX009 (ip), vehicle: water 120 % of control

C=Cn1cc[n+](CC(=O)OC2CCC3C4CCC5=CC(=O)CCC5(C)C4CCC23C)c1 (configuration not stated)
inactive: [10] 97 % of control | [11] 96 % of control
